# Measurements from ChEMBL document CHEMBL1137465, “Cytostatic evaluations of nucleoside analogs related to unnatural base pairs for a genetic expansion system” (Bioorg Med Chem Lett, 2007).
# Legend:
# HT-1080 [1] = test: Cytostatic activity against human HT1080 cells at 500 uM by MTT assay; assay type: functional
# [2] = Cytostatic activity against human WI38 cells at 500 uM by MTT assay; assay type: ADME, cell-based, WI-38
# CCRF-CEM [3] = test: Cytostatic activity against human CCRFCEM cells by MTT assay; assay type: functional, cell-based
# HT-1080 [4] = test: Cytostatic activity against human HT1080 cells by MTT assay; assay type: functional, cell-based
# [5] = Cytostatic activity against human WI38 cells MTT assay; assay type: ADME, cell-based; conditions: WI-38
# HT-1080 [6] = test: Cytostatic activity against human HT1080 cells assessed as relative percent survival at 5 uM by MTT assay; assay type: functional; conditions: read-out: Survival
# HT-1080 [7] = test: Cytostatic activity against human HT1080 cells assessed as relative percent survival at 25 uM by MTT assay; assay type: functional; conditions: read-out: Survival
# [8] = Cytostatic activity against human WI38 cells assessed as relative percent survival at 5 uM by MTT assay; assay type: ADME, cell-based, WI-38; conditions: read-out: Survival
# WI-38 = test: Cytostatic activity against human WI38 cells assessed as relative percent survival at 25 uM by MTT assay; assay type: functional; conditions: read-out: Survival
# CCRF-CEM [9] = test: Cytostatic activity against human CCRFCEM cells at 500 uM by MTT assay; assay type: functional
Compound,inhibition at 500 µM (HT-1080 [1]) [%],inhibition at 500 µM [2] [%],IC50 (CCRF-CEM [3]) [µM],IC50 (HT-1080 [4]) [µM],IC50 [5] [µM],inhibition at 500 µM (CCRF-CEM [9]) [%],further results
O=c1[nH]cccc1[C@H]1C[C@H](O)[C@@H](CO)O1,< 50,< 50,,,,,
Nc1nc(-c2cccs2)c2ncn([C@H]3C[C@H](O)[C@@H](CO)O3)c2n1,,,340,38,500,,viability at 5 µM (HT-1080 [6]): 97%; viability at 25 µM (HT-1080 [7]): 69%; viability at 5 µM [8]: 92%; viability at 25 µM (WI-38): 91%
OC[C@H]1O[C@@H](n2cnc3c(-c4cccs4)ncnc32)[C@H](O)[C@@H]1O,,,2.3,0.33,5.7,,
OC[C@H]1O[C@@H](n2cnc3c(-c4cccs4)ccnc32)C[C@@H]1O,,,120,56,190,,
OC[C@H]1O[C@@H](n2cnc3c(-c4cccs4)ccnc32)[C@H](O)[C@@H]1O,,,230,190,310,,
Nc1nc(-c2cccs2)c2ncn([C@@H]3O[C@H](CO)[C@@H](O)[C@H]3O)c2n1,,< 50,,88,,< 50,
O=c1[nH]cccc1[C@@H]1O[C@H](CO)[C@@H](O)[C@H]1O,< 50,< 50,,,,,
O=Cc1cccn1[C@@H]1O[C@H](CO)[C@@H](O)[C@H]1O,< 50,< 50,,,,< 50,
OC[C@H]1O[C@@H](n2cnc3c(-c4cccs4)ncnc32)C[C@@H]1O,,< 50,420,95,,,
Nc1nc(-c2ccco2)c2ncn([C@H]3C[C@H](O)[C@@H](CO)O3)c2n1,,< 50,,290,,< 50,
O=c1[nH]c(=O)n([C@H]2C[C@H](O)[C@@H](CO)O2)cc1F [FLOXURIDINE],,,0.29,0.18,500,,
OC[C@H]1O[C@@H](n2cnc3c(-c4ccco4)ncnc32)C[C@@H]1O,,< 50,,330,,< 50,
O=Cc1cccn1[C@H]1C[C@H](O)[C@@H](CO)O1,< 50,< 50,,,,< 50,
